These results are taken from patent US12643889B2, “Synthesis of novel EP4 antagonist and use in cancer and inflammation” (Wuhan Humanwell Innovative Drug Research And Development …, priority 2020, dated 2026).

Molecules are shown by their SMILES.

Series [1] deals with CT-26 murine colon cancer tumor model. The series can be described thus: Anti-tumor effect in CT-26 murine colon cancer tumor model in combination with radiation therapy. Type of series: in vivo, mouse. The settings on record: 150 mg/kg intragastric once daily in combination with radiotherapy (3Gry, once on day 1); day 23; tumor weight. The procedure: In this assay, the anti-tumor effects of the control compound and the compounds prepared in Examples 1 to 43, in combination with radiation therapy, were tested in a CT-26 murine colon cancer tumor model.
After one week of adaptive feeding of mice, CT-26 cells in a log phase were resuspended in PBS, 5×10^5 CT-26 cells were inoculated subcutaneously at the right flank at 100 μL per mouse, and tumor growth was observed regularly. When the tumor grew to an average volume of 60 to 80 mm^3, the mice carrying the tumor were randomly divided into 5 groups based on the tumor volume size, each group containing 10 mice of 10. These group were a group of Control compound (150 mg/kg) in combination with radiotherapy (3Gry), a group of Compound I-2 (150 mg/kg) in combination with radiotherapy, a group of Compound I-5 (150 mg/kg) in combination with radiotherapy, a group of radiotherapy (3Gry) alone, and a group of vehicle control. The mice were intragastrically administered with the corresponding compound once daily, for 23 days in total; radiation therapy was performed for one-time on the first day of the administration. Tumor volumes and mouse body weights were measured twice a week, and tumor weights were weighed at the end of the experiment. Efficacy evaluations were performed based on relative tumor inhibition (TGI), safety evaluations were performed based on changes in animal body weight and death. Tumor volume and relative tumor inhibition were calculated as follows:
Tumor volume (TV)=½×a×b^2, where a and b are the length and width of the tumor measurement, respectively.
Relative tumor inhibition rate TGI (%)=(TWc−TWt/TWc)×100%, where TWc is the mean tumor weight of the vehicle control group and TW is the mean tumor weight of the treatment group.

The target in series [2] is T1, human EP4 receptor (Homo sapiens, UniProt P35408). The series can be described thus: Assay of calcium current inhibition on EP4 receptor (FLIPR, 293 cells). The format is cell-based. Also noted: expressed in transfected cells; host or cells: 293 cells. The settings on record: 293 cells overexpressing human EP4; PGE2 at EC80; FLIPR. The procedure: The cells were rapidly thawed in a 37° C. water bath, centrifuged, resuspended, and counted. The cell suspensions were seeded at 20 μL/well in two 384-well plates (20,000 cells/well) and placed in an incubator (a 37° C., 5% CO2) overnight. Preparation of a 2× Fluo-4 Direct™ (Invitrogen, Cat #F10471) loading buffer: 77 mg of probenecid was added to 1 mL of a FLIPR buffer, with a concentration of 250 mM. 10 mL of FLIPR buffer and 0.2 mL of probenecid (250 mM) were added to each tube of Fluo-4 Direct™ crystals (F10471).
T1 sequence (P35408 whole entry): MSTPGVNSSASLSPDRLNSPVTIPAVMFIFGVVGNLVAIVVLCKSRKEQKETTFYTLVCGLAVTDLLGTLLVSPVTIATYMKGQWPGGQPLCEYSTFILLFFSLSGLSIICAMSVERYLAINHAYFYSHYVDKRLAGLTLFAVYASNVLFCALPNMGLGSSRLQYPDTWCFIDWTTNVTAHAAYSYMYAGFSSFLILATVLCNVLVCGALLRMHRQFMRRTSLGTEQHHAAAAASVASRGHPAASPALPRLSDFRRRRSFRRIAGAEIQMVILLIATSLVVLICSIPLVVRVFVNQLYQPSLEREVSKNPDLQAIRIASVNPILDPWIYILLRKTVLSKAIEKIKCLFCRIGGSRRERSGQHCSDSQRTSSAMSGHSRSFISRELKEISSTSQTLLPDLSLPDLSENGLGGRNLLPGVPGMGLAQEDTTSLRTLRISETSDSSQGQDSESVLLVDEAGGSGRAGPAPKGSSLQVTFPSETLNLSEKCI
One of the cell plates was taken out of the incubator and the medium was removed. 20 μL of an assay buffer and 2× Fluo-4 Direct™ non-wash loading buffer were added to the 384-well cell culture plate to a final volume of 40 μL, and then the culture plate was incubated in an incubator (a 37° C., 5% CO2) for 50 minutes, and then at room temperature for 10 minutes, and then the plate was placed in the FLIPR. 10 μL of the buffer was transferred to the cell plate and the fluorescence signal was read. The agonist PGE2 was formulated as a 10 mM stock in a DMSO solvent and 10 concentration points of the 6× working solution were serially diluted using the buffer. 10 μL of the agonist PGE2 was transferred to the cell plate, the fluorescence signal was read to calculate EC80 value.
The agonist PGE2 was prepared at 6× EC80 concentration and the compound to be tested was formulated as a 10 mM stock solution in the DMSO solvent and 10 concentration points of the 6× compound working solution was serially diluted using the buffer.
Another cell plate was taken to remove media and 20 μL of the assay buffer and 2× Fluo-4 Direct™ non-wash loading buffer were added; the cell plate was incubated in a 37° C., 5% CO2 incubator for 50 minutes and room temperature for 10 minutes and then placed in the FLIPR. 10 μL of the compound working solution, DMSO, and the EP4 full antagonist were transferred to the cell plate and the fluorescence signal was read. […] Inhibition (%)=100−(test group−EP4 full antagonist group)/(DMSO group−EP4 full antagonist group)*100
Compound's IC50 value of EP4 calcium current inhibition was calculated based on the inhibition rate at different concentrations of the compound.

Series [3] can be described thus: Mouse pharmacokinetic assay. Type of series: in vivo, male ICR mice. The settings on record: male, ICR, plasma, oral gavage administration 5 mg/kg. The method, then: In a mouse pharmacokinetic assay, male ICR mice (20 g to 25 g) were selected and fasted overnight. Three mice were selected and intragastrically administered with 5 mg/kg of the corresponding compound. The blood of the mice was collected before the administration and at 15 min, 30 min, 1 h, 2 h, 4 h, 8 h, 24 h after the administration. Another 3 mice were intravenously administered with 1 mg/kg of the corresponding compound, and the blood thereof was collected before the administration and at 15 min, 30 min, 1 h, 2 h, 4 h, 8 h, 24 h after the administration. The blood samples were centrifuged at 6800 g at 2° C. to 8° C. for 6 minutes, and plasma was collected and stored at −80° C. The plasma was taken at respective time point, mixed with 3-5 times the amount of acetonitrile containing internal standard, vortexed for 1 minute, centrifuged at 4° C. for 10 minutes at 13000 rpm, supernatant was added 3 times the amount of water, and the appropriate mixture was taken for LC-MS/MS analysis. The primary pharmacokinetic parameters were analyzed with a WinNonlin 7.0 software, with non-compartmental model.

For series [4], the target named is T1, human EP4 receptor. The series is described as follows: Assay for EP4 antagonistic effect (cAMP, PGE2-stimulated CHO stable cell line).
The target of series [5] is T2, recombinant human EP4 receptor membrane protein (Homo sapiens, UniProt P35408).
T2 construct: expressed in transfected cells; host or cells: membranes of 293 cells overexpressing human EP4 receptor
T2 sequence (P35408 whole entry): as above
The series is described as follows: Radioligand binding assay for EP4 receptor ([3H]-PGE2). The settings on record: [3H]-PGE2 1.5 nM; membrane protein 20 μg/well. The procedure:
The compounds to be tested and PGE2 were formulated as 10 mM stocks in a DMSO solvent, and then 8 concentration points of 4× working solution were serially diluted using a buffer (50 mM HBSS, 0.1% BSA, 500 mM NaCl). […] Unifilter-96 GF/C filter plate (Perkin Elmer) was soaked with 0.5% BSA, 50 μL per well, for at least 30 min at room temperature. After binding was complete, the reaction mixture was harvested through a GF/C plate using a Perkin Elmer Filtermate Harvester, followed by washing the filter plate and drying the filter plate for 1 hour at 50° C. After drying, the bottom of the filter plate wells was sealed using a Perkin Elmer Unifilter-96 sealing tape, and 50 μL of MicroScint™-20 cocktail (Perkin Elmer) was added to seal the top of the filter plate. The ^3H counts captured on the filter were read using a Perkin Elmer MicroBeta2 Reader.
The IC50 and Ki values of the compounds determined by the radioligand binding assay for EP4 receptor were calculated based on the inhibition rate of the different concentrations of the compounds.

The IC50 is the concentration needed to halve the response being measured. The AUC(0-t) is the area under the concentration-time curve up to a stated or last time point. Lower therefore signals low exposure. One may read the Cmax as the highest concentration seen after dosing. The term Tmax denotes the time from dosing to the highest level. The half-life is the time needed for the level to fall by half in the phase considered. Read a high half-life as slow decline. Broadly, the Ki is a measure of affinity in units of concentration, obtained from inhibition or displacement. In the case of `CCc1cc(Oc2c(C(=O)N[C@@H](C)c3ccc(C(=O)O)cc3)c(C(F)F)nn2C)ccc1F` [Compound I-2, (S)-4-(1-(3-(difluoromethyl)-5-(3-ethyl-4-fluorophenoxy)-1-methyl-1H-pyrazole-4-carboxamido)ethyl)benzoic Acid], the “relative tumor inhibition rate TGI (%)” value in series [1] was found to be 63%. Besides, the IC50 on human EP4 receptor [2] came out at 7.4 nM. For the same compound, in series [3], the AUC(0-t) came to 2140 ng·h/mL, the highest level (Cmax) was 1840 ng/mL, the Tmax is 19.8 min and the half-life is 941 min. Also, the IC50 at human EP4 receptor [4] was determined as 1.9 nM. In addition, in series [5], the IC50 was determined as 5.5 nM and the Ki was determined as 3 nM.
